Results taken from publication PMC12486440, “Design, synthesis, and in silico studies of new benzofuran–pyrazole hybrids as multi-kinase inhibitors with potential antiproliferative activity” (RSC Advances, 2025).

Key:
SK-OV-3 = settings: single dose 10 μM; ovarian carcinoma
B-Raf (V600E) = B-Raf (V600E) (Homo sapiens, UniProt P15056, V600E); experiment: B-Raf kinase inhibitory assay (Kinase-Glo Max); type: biochemical
c-Met = c-Met (Homo sapiens, UniProt P08581); experiment: c-Met kinase inhibitory assay (HTRF); type: biochemical
NCI/ADR-RES = settings: Homo sapiens, NCI/ADR-RES
UACC-62 = settings: Homo sapiens, UACC-62
Pim-1 = Pim-1 (Homo sapiens, UniProt P11309); experiment: PIM kinase inhibitory assay (ADP-Glo); type: biochemical
HL-60(TB) = experiment: cells; settings: Homo sapiens
Prostate cancer subpanel = experiment: NCI 60 subpanel summary; type: cell-based, human
HS 578T = settings: Homo sapiens
CNS cancer subpanel = experiment: NCI 60 subpanel summary; type: cell-based, human
MDA-MB-468 = settings: single dose 10 μM; breast carcinoma
VEGFR-2 = target: T1, VEGFR-2 (Homo sapiens, UniProt P35968); experiment: VEGFR-2 kinase inhibitory assay (Kinase-Glo MAX); type: biochemical
T1 construct: purchased

EGFR (WT) = target: T2, EGFR (WT) (Homo sapiens, UniProt P00533); experiment: EGFR WT kinase inhibitory assay (HTRF); type: biochemical
T2 construct: purchased Sigma

[1] = single dose 10 μM, non-small lung carcinoma
[2] = single dose 10 μM, colon cancer
[3] = single dose 10 μM, ovarian carcinoma
[4] = Homo sapiens, subpanel mean graph midpoint, read-out: MG-MID (GI50)
[5] = full panel MG-MID / subpanel MG-MID
[6] = single dose 10 μM, renal carcinoma

Chain of B-Raf (V600E) (P15056 whole entry V600E): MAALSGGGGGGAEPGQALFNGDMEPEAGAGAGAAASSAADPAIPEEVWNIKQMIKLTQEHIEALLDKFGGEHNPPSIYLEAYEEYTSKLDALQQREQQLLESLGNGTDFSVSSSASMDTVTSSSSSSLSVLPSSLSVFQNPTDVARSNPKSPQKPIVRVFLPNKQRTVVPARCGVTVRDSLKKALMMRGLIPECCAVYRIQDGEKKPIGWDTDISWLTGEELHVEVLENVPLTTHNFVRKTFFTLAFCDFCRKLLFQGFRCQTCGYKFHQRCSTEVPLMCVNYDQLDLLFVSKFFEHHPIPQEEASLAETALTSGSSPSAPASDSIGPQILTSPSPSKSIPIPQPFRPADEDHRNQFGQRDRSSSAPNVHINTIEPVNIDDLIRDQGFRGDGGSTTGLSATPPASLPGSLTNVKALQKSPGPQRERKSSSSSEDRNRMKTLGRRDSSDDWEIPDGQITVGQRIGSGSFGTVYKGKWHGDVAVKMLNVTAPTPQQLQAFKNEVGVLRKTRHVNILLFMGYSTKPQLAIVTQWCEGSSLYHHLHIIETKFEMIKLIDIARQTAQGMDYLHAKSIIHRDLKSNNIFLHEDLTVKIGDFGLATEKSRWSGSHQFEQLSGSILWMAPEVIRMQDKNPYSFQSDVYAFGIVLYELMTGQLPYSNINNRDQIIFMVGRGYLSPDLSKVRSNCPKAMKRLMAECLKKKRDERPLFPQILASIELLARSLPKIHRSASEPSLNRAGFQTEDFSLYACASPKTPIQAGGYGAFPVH
T1 sequence (P35968 20-1356): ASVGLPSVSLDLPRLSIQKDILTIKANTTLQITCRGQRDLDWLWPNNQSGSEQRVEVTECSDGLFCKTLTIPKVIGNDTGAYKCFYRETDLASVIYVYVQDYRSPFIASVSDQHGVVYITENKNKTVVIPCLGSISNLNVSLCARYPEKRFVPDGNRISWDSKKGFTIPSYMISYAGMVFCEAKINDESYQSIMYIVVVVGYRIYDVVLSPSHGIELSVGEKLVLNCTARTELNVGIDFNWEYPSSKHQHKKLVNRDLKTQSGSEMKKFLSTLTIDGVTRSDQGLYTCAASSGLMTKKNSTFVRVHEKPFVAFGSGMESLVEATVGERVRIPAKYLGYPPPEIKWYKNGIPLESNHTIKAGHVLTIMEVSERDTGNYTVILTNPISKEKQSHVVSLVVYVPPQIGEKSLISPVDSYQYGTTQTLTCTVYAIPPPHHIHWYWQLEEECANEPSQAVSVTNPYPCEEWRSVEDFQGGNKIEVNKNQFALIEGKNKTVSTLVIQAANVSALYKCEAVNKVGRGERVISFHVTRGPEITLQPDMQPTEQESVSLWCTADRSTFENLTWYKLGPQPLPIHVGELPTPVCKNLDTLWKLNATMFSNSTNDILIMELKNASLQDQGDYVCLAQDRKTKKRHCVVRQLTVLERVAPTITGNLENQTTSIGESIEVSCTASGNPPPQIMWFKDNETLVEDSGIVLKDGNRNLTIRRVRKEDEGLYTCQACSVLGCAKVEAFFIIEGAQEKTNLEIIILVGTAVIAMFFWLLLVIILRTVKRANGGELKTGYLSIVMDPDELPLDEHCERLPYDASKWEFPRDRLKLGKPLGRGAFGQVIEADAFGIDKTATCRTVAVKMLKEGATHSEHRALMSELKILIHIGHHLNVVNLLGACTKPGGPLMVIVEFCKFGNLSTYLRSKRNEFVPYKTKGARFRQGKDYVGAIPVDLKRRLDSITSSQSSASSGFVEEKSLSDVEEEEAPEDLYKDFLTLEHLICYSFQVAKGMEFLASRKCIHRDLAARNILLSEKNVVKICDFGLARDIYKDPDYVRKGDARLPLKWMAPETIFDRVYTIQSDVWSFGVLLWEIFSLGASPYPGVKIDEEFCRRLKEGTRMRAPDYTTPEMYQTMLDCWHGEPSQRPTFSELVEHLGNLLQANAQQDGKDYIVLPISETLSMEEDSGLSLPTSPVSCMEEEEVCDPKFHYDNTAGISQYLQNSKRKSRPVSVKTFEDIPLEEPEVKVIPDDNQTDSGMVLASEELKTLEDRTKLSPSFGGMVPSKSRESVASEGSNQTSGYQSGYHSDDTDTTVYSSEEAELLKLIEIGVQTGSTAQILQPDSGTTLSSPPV
T2 sequence (P00533 25-1210): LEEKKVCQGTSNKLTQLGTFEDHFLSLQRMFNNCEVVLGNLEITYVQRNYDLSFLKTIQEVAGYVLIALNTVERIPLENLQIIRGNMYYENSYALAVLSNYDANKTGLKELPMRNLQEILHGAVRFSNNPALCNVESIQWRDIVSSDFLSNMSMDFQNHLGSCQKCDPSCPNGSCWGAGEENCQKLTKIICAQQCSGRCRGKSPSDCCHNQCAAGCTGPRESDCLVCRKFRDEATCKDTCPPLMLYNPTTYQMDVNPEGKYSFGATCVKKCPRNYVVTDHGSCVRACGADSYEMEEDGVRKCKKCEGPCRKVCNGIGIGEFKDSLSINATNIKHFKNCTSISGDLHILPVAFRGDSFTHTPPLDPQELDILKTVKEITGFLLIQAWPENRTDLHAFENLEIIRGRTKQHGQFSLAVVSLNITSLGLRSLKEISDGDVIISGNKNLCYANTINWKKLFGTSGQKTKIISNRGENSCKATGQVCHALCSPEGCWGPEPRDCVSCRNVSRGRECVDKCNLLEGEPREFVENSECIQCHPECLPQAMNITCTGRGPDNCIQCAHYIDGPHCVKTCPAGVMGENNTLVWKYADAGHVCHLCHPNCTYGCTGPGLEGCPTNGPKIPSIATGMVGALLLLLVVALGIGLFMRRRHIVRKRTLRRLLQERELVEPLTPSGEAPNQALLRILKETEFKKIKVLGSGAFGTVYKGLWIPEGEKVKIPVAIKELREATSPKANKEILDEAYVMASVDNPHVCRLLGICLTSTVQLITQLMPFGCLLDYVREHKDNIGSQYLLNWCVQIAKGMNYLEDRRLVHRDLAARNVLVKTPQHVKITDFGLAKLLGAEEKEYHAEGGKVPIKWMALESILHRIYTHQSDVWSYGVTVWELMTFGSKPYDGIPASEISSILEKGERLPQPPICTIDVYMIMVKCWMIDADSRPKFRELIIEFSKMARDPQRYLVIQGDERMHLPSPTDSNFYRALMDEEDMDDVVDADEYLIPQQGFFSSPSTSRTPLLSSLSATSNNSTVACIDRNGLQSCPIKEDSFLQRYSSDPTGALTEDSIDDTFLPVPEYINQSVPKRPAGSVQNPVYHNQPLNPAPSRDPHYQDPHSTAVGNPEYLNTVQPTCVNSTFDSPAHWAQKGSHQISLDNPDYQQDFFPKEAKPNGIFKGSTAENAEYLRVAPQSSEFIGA
Chain of Pim-1 (P11309 whole entry): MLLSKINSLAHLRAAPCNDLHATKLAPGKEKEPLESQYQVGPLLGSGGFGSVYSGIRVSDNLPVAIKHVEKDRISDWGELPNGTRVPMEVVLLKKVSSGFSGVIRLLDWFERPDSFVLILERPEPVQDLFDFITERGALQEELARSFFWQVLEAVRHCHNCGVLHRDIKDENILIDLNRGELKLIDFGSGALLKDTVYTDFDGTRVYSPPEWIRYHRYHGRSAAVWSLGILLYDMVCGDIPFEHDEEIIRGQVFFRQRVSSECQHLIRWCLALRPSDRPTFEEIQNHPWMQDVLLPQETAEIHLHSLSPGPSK
Chain of c-Met (P08581 25-1390): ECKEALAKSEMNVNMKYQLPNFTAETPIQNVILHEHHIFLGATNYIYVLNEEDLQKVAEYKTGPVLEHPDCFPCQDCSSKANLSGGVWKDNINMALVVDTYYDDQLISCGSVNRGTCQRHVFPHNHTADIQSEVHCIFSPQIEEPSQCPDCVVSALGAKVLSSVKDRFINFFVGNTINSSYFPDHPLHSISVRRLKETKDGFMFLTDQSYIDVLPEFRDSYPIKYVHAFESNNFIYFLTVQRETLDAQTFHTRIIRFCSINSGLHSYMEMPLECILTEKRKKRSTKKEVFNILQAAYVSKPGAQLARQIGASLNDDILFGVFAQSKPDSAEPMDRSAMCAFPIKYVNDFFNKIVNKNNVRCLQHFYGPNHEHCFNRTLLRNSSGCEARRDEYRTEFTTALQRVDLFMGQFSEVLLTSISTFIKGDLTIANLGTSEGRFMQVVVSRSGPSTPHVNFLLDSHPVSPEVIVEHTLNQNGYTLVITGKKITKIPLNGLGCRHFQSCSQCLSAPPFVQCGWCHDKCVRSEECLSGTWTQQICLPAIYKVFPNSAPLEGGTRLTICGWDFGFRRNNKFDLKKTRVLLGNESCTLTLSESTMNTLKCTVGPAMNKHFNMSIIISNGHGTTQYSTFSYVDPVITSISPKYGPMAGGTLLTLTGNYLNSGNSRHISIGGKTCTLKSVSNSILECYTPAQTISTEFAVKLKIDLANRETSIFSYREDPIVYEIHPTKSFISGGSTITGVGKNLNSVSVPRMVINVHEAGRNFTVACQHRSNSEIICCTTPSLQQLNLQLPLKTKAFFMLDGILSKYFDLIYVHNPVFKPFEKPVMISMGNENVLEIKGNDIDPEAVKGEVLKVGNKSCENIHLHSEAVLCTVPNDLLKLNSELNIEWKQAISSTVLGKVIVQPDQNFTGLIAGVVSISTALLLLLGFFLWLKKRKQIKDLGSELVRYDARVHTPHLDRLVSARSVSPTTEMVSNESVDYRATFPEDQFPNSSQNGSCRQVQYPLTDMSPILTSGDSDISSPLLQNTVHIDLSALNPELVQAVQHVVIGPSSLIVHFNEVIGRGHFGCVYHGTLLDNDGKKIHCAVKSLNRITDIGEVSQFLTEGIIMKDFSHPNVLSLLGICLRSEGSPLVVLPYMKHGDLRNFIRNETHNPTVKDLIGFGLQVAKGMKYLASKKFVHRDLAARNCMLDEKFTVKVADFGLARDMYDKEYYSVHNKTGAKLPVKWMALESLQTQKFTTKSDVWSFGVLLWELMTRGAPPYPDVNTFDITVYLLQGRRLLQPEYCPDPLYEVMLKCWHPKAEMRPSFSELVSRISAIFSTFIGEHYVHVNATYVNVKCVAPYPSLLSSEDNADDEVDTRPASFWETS

## c1ccc(-n2cc(C3CC(c4nc5ccccc5[nH]4)=NN3)c(-c3cc4ccccc4o3)n2)cc1 (stereo not drawn) [3d, 3-(Benzofuran-2-yl)-4-(3-(1H-benzo[d]imidazol-2-yl)-4,5-dihydro-1H-pyrazol-5-yl)-1-phenyl-1H-pyrazole]
SK-OV-3
  GI%: 62.21%
A549/ATCC; Homo sapiens, A549
  GI50: 3.86 µM
A549/ATCC; [1]
  GI%: 87.82%
B-Raf (V600E)
  IC50: 0.175 µM
B-Raf (V600E); ratio of IC50 values
  times less sensitive, B-Raf (V600E), than to vemurafenib: 2.8
HCT-15; Homo sapiens, HCT-15
  GI50: 3.18 µM
HCT-15; [2]
  GI%: 83.02%
c-Met
  IC50: 0.911 µM
NCI/ADR-RES
  GI50: 3.16 µM
OVCAR-8; Homo sapiens, OVCAR-8
  GI50: 5.88 µM
OVCAR-8; [3]
  GI%: 86.94%
SF-268; Homo sapiens, SF-268
  GI50: 4.51 µM
SF-268; single dose 10 μM, CNS cancer
  GI%: 72.21%
HT29; Homo sapiens, HT-29
  GI50: 6.46 µM
HT29; [2]
  GI%: 64.97%
MDA-MB-435; Homo sapiens, MDA-MB-435
  GI50: 4.24 µM
MDA-MB-435; single dose 10 μM, melanoma
  GI%: 83.49%
UACC-62
  GI50: 1.84 µM
Pim-1
  IC50: 2.37 µM
Pim-1; ratio of IC50 values
  times less sensitive, Pim-1, than to staurosporine: 4.9
U251; Homo sapiens, U-251
  GI50: 3.72 µM
U251; single dose 10 μM, CNS cancer
  GI%: 85.69%
OVCAR-4; Homo sapiens, OVCAR-4
  GI50: 3.51 µM
OVCAR-4; [3]
  GI%: 66.52%
UACC-257; Homo sapiens, UACC-257
  GI50: 6.24 µM
UACC-257; single dose 10 μM, melanoma
  GI%: 79.15%
HL-60(TB)
  GI50: 2.56 µM
Prostate cancer subpanel; [4]
  GI50: 4.31 µM
Prostate cancer subpanel; [5]
  Selectivity index: 0.97
SK-MEL-28; Homo sapiens, SK-MEL-28
  GI50: 4.58 µM
SK-MEL-28; single dose 10 μM, melanoma
  GI%: 80.99%
HS 578T
  GI50: 7.94 µM
OVCAR-5; Homo sapiens, OVCAR-5
  GI50: 5.52 µM
OVCAR-5; [3]
  GI%: 66.23%
CNS cancer subpanel; [4]
  GI50: 3.55 µM
CNS cancer subpanel; [5]
  Selectivity index: 1.18
RXF 393; Homo sapiens, RXF 393
  GI50: 6.25 µM
RXF 393; [6]
  GI%: 63.52%
MDA-MB-468
  GI%: 70.95%
VEGFR-2
  IC50: 0.619 µM
VEGFR-2; ratio of IC50 values
  times more effective at suppressing VEGFR-2 than sorafenib: 4.1
A498; Homo sapiens, A498
  GI50: 12.7 µM
A498; [6]
  GI%: 54.33%
M14; Homo sapiens, M14
  GI50: 3.22 µM
M14; single dose 10 μM, melanoma
  GI%: 83.05%
SF-539; Homo sapiens, SF-539
  GI50: 3.97 µM
SF-539; single dose 10 μM, CNS cancer
  GI%: 85.47%
KM12; Homo sapiens, KM12
  GI50: 5.55 µM
KM12; [2]
  GI%: 91.86%
IGROV1; Homo sapiens, IGROV-1
  GI50: 3.34 µM
IGROV1; [3]
  GI%: 89.61%
ACHN; Homo sapiens, ACHN
  GI50: 3.11 µM
ACHN; [6]
  GI%: 92.45%
PC-3; Homo sapiens, PC-3
  GI50: 3.47 µM
PC-3; single dose 10 μM, prostate carcinoma
  GI%: 91.14%
SNB-19; Homo sapiens, SNB-19
  GI50: 3.77 µM
SNB-19; single dose 10 μM, CNS cancer
  GI%: 92.86%
EGFR (WT)
  IC50: 0.398 µM
EGFR (WT); ratio of IC50 values
  times more effective at suppressing EGFR (WT) than erlotinib: 1.2
SK-MEL-5; Homo sapiens, SK-MEL-5
  GI50: 2.76 µM
SK-MEL-5; single dose 10 μM, melanoma
  GI%: 90.42%
EKVX; Homo sapiens, EKVX
  GI50: 2.69 µM
EKVX; [1]
  GI%: 78.25%
